Results taken from publication PMC2833271 (Neuropsychopharmacology : official publication of the …, 2009).
Entries after “also recorded” stand apart in the source; their conditions may differ. Like-named read-outs stand apart in the source and are kept apart here.

Legend:
[1] = target: T1, brain MAO-A (Homo sapiens, UniProt P21397); assay: PET imaging of [11C]clorgyline binding; assay type: in vivo
T1 sequence (P21397 1-527): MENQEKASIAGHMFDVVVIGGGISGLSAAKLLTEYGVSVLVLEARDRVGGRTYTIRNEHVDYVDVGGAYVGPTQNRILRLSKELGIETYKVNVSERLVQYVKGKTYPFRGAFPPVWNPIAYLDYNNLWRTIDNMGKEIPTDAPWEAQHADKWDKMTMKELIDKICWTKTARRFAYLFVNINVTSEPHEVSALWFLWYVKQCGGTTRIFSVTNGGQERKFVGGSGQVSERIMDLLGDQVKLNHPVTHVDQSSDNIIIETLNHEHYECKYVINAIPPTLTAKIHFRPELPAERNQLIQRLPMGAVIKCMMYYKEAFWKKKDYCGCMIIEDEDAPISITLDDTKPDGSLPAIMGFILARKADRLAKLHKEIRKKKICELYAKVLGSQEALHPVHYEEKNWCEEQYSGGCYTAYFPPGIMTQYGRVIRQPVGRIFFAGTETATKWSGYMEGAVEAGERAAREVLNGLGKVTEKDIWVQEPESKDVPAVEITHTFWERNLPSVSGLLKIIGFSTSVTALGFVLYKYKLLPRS

[2] = Plasma CX157 concentration and pharmacokinetics; assay type: in vivo, human; conditions: for concentration at 2 h / concentration at 5 h / concentration at 12 h / concentration at 8 h: oral; for Plasma CX157: single subject value
[3] = target: T1, brain MAO-A; assay: Emax model of brain MAO-A inhibition vs plasma CX157 concentration; assay type: in vivo
[4] = Adverse events in study subjects; assay type: in vivo, human; conditions: 15 normal men, oral CX157 20-80 mg
[5] = system: MAO-A; conditions: in human brain; ref data on file, CeNeRx Biopharma, Cary, NC; cited from earlier work
[6] = target: T1, brain MAO-A; conditions: [11C]harmine PET; ref Bergström et al, 1997; cited from earlier work

Question: For `O=S1(=O)c2ccc(F)cc2Oc2cc(OCC(F)(F)F)ccc21` [CX157, 3-fluoro-7-(2,2,2-trifluoroethoxy)phenoxathiin-10,10-dioxide], which “inhibition of MAO-A” value ([1]; 40 mg CX157, first two subjects) is on record?
Answer: ~ 60%

Question: And the “inhibition of [11C]clorgyline binding to brain MAO-A” value ([1]; 60 and 80 mg oral doses, 2 h after administration)?
Answer: 47–72%

Question: What about the “recovery of brain MAO-A activity” value ([1]; 24 h post drug (single dose, 40 mg)) of the same compound?
Answer: recovered completely; also recorded: Complete recovery to baseline values

Question: And the inhibition at 40 mg ([1]; read-out: % MAO-A inhibition (inhibition of [11C]clorgyline binding, λk3), multi-dose 40 mg BID 7 days, n = 3, 12 h post dose)?
Answer: 23.1 ± 3.7%

Question: What about the inhibition at 40 mg ([1]; read-out: % MAO-A inhibition (inhibition of [11C]clorgyline binding, λk3), multi-dose 40 mg BID, 10 h, single subject value) of the same compound?
Answer: 27.3%

Question: What about the “% MAO-A inhibition (inhibition of [11C]clorgyline binding, λk3)” value (“% MAO-A inhibition” below) ([1]; single dose 20 mg, n = 2, 2 h after CX157) of the same compound?
Answer: 18.5 ± 10.6%

Question: What about the “% MAO-A inhibition” value ([1]; single dose 20 mg, n = 2, 5 h after CX157) of the same compound?
Answer: 18.8 ± 6.7%

Question: What about the “% MAO-A inhibition” value ([1]; single dose 20 mg, n = 2, 12 h after CX157) of the same compound?
Answer: 12.4 ± 10.8%

Question: And the “% MAO-A inhibition” value ([1]; single dose 40 mg, n = 3, 2 h after CX157)?
Answer: 54.7 ± 8.9%

Question: What about the “% MAO-A inhibition” value ([1]; single dose 40 mg, n = 3, 12 h after CX157) of the same compound?
Answer: 6.8 ± 14.6%

Question: And the “% MAO-A inhibition” value ([1]; single dose 40 mg, n = 3, 24 h after CX157)?
Answer: −1.8 ± 0.7%

Question: And the “% MAO-A inhibition” value ([1]; single dose 40 mg, 5 h after CX157, single subject value)?
Answer: 34.5%

Question: What about the “% MAO-A inhibition” value ([1]; single dose 40 mg, 8 h after CX157, single subject value) of the same compound?
Answer: 6.5%

Question: And the “% MAO-A inhibition” value ([1]; single dose 60 mg, n = 3, 5 h after CX157)?
Answer: 31.6 ± 27.4%

Question: What about the “% MAO-A inhibition” value ([1]; single dose 60 mg, n = 3, 8 h after CX157) of the same compound?
Answer: 23.4 ± 30.0%

Question: What about the “% MAO-A inhibition” value ([1]; single dose 60 mg, n = 3, 12 h after CX157) of the same compound?
Answer: 17.6 ± 17.9%

Question: And the “% MAO-A inhibition” value ([1]; single dose 80 mg, n = 4, 2 h after CX157)?
Answer: 72.3 ± 8.7%

Question: And the “% MAO-A inhibition” value ([1]; single dose 80 mg, n = 4, 5 h after CX157)?
Answer: 48.6 ± 12.1%

Question: What about the “% MAO-A inhibition” value ([1]; single dose 80 mg, n = 4, 8 h after CX157) of the same compound?
Answer: 30.4 ± 8.9%

Question: And the “% MAO-A inhibition” value ([1]; single dose 80 mg, 12 h after CX157, single subject value)?
Answer: 43.1%

Question: What about the “peak inhibition of [11C]clorgyline binding” value ([1]; single doses, all dose groups except 20 mg, 2-h time point) of the same compound?
Answer: 47–72%

Question: What about the concentration at 2 h ([2]; male, human, plasma, 20 mg, Average plasma CX157, single dose 20 mg, n = 2, 2 h) of the same compound?
Answer: 0.0185 ± 0.0033 µg/mL

Question: And the concentration at 5 h ([2]; male, human, plasma, 20 mg, Average plasma CX157, single dose 20 mg, n = 2, 5 h)?
Answer: 0.0188 ± 0.0011 µg/mL

Question: And the concentration at 12 h ([2]; male, human, plasma, 20 mg, Average plasma CX157, single dose 20 mg, n = 2, 12 h)?
Answer: 0.0124 ± 0.0007 µg/mL

Question: And the concentration at 2 h ([2]; male, human, plasma, 40 mg, Average plasma CX157, multi-dose 40 mg BID, n = 3, 2 h)?
Answer: 0.0483 ± 0.0113 µg/mL

Question: What about the concentration at 5 h ([2]; male, human, plasma, 40 mg, Average plasma CX157, multi-dose 40 mg BID, n = 3, 5 h) of the same compound?
Answer: 0.0341 ± 0.0058 µg/mL

Question: What about the concentration at 8 h ([2]; male, human, plasma, 40 mg, Average plasma CX157, multi-dose 40 mg BID, n = 3, 8 h) of the same compound?
Answer: 0.0322 ± 0.0044 µg/mL

Question: What about the concentration at 12 h ([2]; male, human, plasma, 40 mg, Average plasma CX157, multi-dose 40 mg BID, n = 3, 12 h) of the same compound?
Answer: 0.0231 ± 0.0014 µg/mL

Question: And the concentration at 2 h ([2]; male, human, plasma, 40 mg, Average plasma CX157, single dose 40 mg, n = 3, 2 h)?
Answer: 0.0547 ± 0.0185 µg/mL

Question: What about the concentration at 12 h ([2]; male, human, plasma, 40 mg, Average plasma CX157, single dose 40 mg, n = 3, 12 h) of the same compound?
Answer: 0.0068 ± 0.0015 µg/mL

Question: What about the concentration at 2 h ([2]; male, human, plasma, 60 mg, Average plasma CX157, single dose 60 mg, n = 3, 2 h) of the same compound?
Answer: 0.0468 ± 0.0844 µg/mL

Question: And the concentration at 5 h ([2]; male, human, plasma, 60 mg, Average plasma CX157, single dose 60 mg, n = 3, 5 h)?
Answer: 0.0316 ± 0.0374 µg/mL

Question: And the concentration at 8 h ([2]; male, human, plasma, 60 mg, Average plasma CX157, single dose 60 mg, n = 3, 8 h)?
Answer: 0.0234 ± 0.008 µg/mL

Question: What about the concentration at 12 h ([2]; male, human, plasma, 60 mg, Average plasma CX157, single dose 60 mg, n = 3, 12 h) of the same compound?
Answer: 0.0176 ± 0.0066 µg/mL

Question: What about the concentration at 2 h ([2]; male, human, plasma, 80 mg, Average plasma CX157, single dose 80 mg, n = 4, 2 h) of the same compound?
Answer: 0.0723 ± 0.0588 µg/mL

Question: And the concentration at 5 h ([2]; male, human, plasma, 80 mg, Average plasma CX157, single dose 80 mg, n = 4, 5 h)?
Answer: 0.0486 ± 0.025 µg/mL

Question: And the concentration at 8 h ([2]; male, human, plasma, 80 mg, Average plasma CX157, single dose 80 mg, n = 4, 8 h)?
Answer: 0.0304 ± 0.0052 µg/mL

Question: What about the half-life ([2]; male, human, plasma, po) of the same compound?
Answer: 6 ± 3.4 h

Question: And the “Plasma CX157 range” value ([2]; multi-dose 40 mg BID, n = 3, 2 h)?
Answer: 24.5 to 45 ng/mL

Question: What about the “Plasma CX157 range” value ([2]; multi-dose 40 mg BID, n = 3, 5 h) of the same compound?
Answer: 13.1 to 24.7 ng/mL

Question: And the “Plasma CX157 range” value ([2]; multi-dose 40 mg BID, n = 3, 8 h)?
Answer: 10.8 to 19.5 ng/mL

Question: What about the “Plasma CX157 range” value ([2]; multi-dose 40 mg BID, n = 3, 12 h) of the same compound?
Answer: 9 to 11 ng/mL

Question: And the “Plasma CX157” value ([2]; multi-dose 40 mg BID, 10 h)?
Answer: 6.9 ng/mL

Question: What about the “Plasma CX157 range” value ([2]; single dose 20 mg, n = 2, 2 h) of the same compound?
Answer: 3.8 to 8.1 ng/mL

Question: What about the “Plasma CX157 range” value ([2]; single dose 20 mg, n = 2, 5 h) of the same compound?
Answer: 1.9 to 3.4 ng/mL

Question: What about the “Plasma CX157 range” value ([2]; single dose 20 mg, n = 2, 12 h) of the same compound?
Answer: 0.6 to 1.6 ng/mL

Question: What about the “Plasma CX157 range” value ([2]; single dose 40 mg, n = 3, 2 h) of the same compound?
Answer: 18.4 to 55.1 ng/mL

Question: And the “Plasma CX157 range” value ([2]; single dose 40 mg, n = 3, 12 h)?
Answer: 0.9 to 3.9 ng/mL

Question: What about the “Average plasma CX157” value ([2]; single dose 40 mg, n = 3, 24 h) of the same compound?
Answer: 2.8 ± 1.3 ng/mL

Question: What about the “Plasma CX157 range” value ([2]; single dose 40 mg, n = 3, 24 h) of the same compound?
Answer: 1.8 to 3.7 ng/mL

Question: And the “Plasma CX157” value ([2]; single dose 40 mg, 5 h)?
Answer: 8.4 ng/mL

Question: What about the “Plasma CX157” value ([2]; single dose 40 mg, 8 h) of the same compound?
Answer: 1.8 ng/mL

Question: And the “Plasma CX157 range” value ([2]; single dose 60 mg, n = 3, 2 h)?
Answer: 7.6 to 158 ng/mL

Question: What about the “Plasma CX157 range” value ([2]; single dose 60 mg, n = 3, 5 h) of the same compound?
Answer: 3.6 to 67.3 ng/mL

Question: What about the “Plasma CX157 range” value ([2]; single dose 60 mg, n = 3, 8 h) of the same compound?
Answer: 3.4 to 14.7 ng/mL

Question: What about the “Plasma CX157 range” value ([2]; single dose 60 mg, n = 3, 12 h) of the same compound?
Answer: 1.8 to 11.1 ng/mL

Question: What about the “Plasma CX157 range” value ([2]; single dose 80 mg, n = 4, 2 h) of the same compound?
Answer: 70.7 to 183 ng/mL

Question: What about the “Plasma CX157 range” value ([2]; single dose 80 mg, n = 4, 5 h) of the same compound?
Answer: 13.5 to 70.2 ng/mL

Question: And the “Plasma CX157 range” value ([2]; single dose 80 mg, n = 4, 8 h)?
Answer: 5.7 to 15.4 ng/mL

Question: What about the “Plasma CX157” value ([2]; single dose 80 mg, 12 h) of the same compound?
Answer: 16.6 ng/mL

Question: What about the EC50 [3] of the same compound?
Answer: 0.0554 µM

Question: And the “n (exponent of sigmoid Emax model)” value ([3]; Emax model fit, all subjects, doses and time points)?
Answer: 1.0

Question: And the Emax ([3]; read-out: Emax (maximum inhibiting response))?
Answer: 80.7%

Question: What about the “overall incidence of AEs” value [4] of the same compound?
Answer: 13.3%

Question: What about the “serious adverse events or deaths” value [4] of the same compound?
Answer: No serious adverse events (AEs) or deaths occurred

Question: And the MAO-A inhibiting activity [5]?
Answer: 3.3 nM

Question: Which “correlation between plasma drug levels and brain MAO-A inhibition” value [6] does the source give for `CCS(=O)(=O)Oc1ccc2c(C)c(C)c(=O)oc2c1` [esuprone] here?
Answer: no correlation observed
